Data: patent US6822140B2, “Compositions and methods for fumonisin detoxification” (Pioneer Hi-Bred International, Inc., priority 1999, dated 2004)

How the values were obtained:
BMS cells = test: Effect of FB1 and AP1 on growth of maize tissue cultured cells (Black Mexican Sweet, BMS); format: cell-based; conditions: for concentration at which growth of BMS cells was inhibited: 1 week, liquid culture, compared to water control wells
Procedure: FB1 or AP1 at various concentrations was added to suspensions of BMS cells growing in liquid culture medium in 96-well polystyrene plates. After 1 week the cell density in wells was observed under low power magnification and growth of toxin-treated wells was compared to control wells that received water. […] This represents an approximate 100-fold difference in toxicity to maize tissue-cultured cells. […] AP1 was not tested in that study, however.

Maize coleoptiles = test: Effect of FB1 and AP1 on maize coleoptiles (injury evaluation); set-up: key to Injury or lack thereof of maize coleoptiles: + = brown necrotic discoloration of coleoptile; − = no symptoms (same as water control); conditions: for Injury or lack thereof of maize coleoptiles: 2 days dark at 28° C. then 3 days light
Procedure: Maize coleoptiles from 4 day dark-grown germinated maize seeds were excised above the growing point and placed in 96-well microliter plates in the presence of 60 microliters of sterile distilled water containing FB1 or AP1 at approximately equimolar concentrations of 1.5, 0.5, 0.15, 0.05, 0.015, 0.005, 0.0015, or 0.0005 millimolar, along with water controls. After 2 days in the dark at 28° C. the coleoptiles were placed in the light and incubated another 3 days.

Lemna tissues = conditions: Vesonder et al. (1992); cited from earlier work
tomato = conditions: Lamprecht et al. (1994); cited from earlier work
maize callus = conditions: solid medium; Van Asch et al. (1992); cited from earlier work

| Structure (SMILES) | concentration at which growth of BMS cells was inhibited (BMS cells) [µM] | difference in toxicity to maize tissue-cultured cells (FB1 vs AP1) (BMS cells; AP1 less toxic than FB1) [fold] | Injury or lack thereof of maize coleoptiles (Maize coleoptiles; 1.5 mM) | Injury or lack thereof of maize coleoptiles (Maize coleoptiles; .0005 mM) | Injury or lack thereof of maize coleoptiles (Maize coleoptiles; .0015 mM) | Injury or lack thereof of maize coleoptiles (Maize coleoptiles; .005 mM) | Injury or lack thereof of maize coleoptiles (Maize coleoptiles; .015 mM) | Injury or lack thereof of maize coleoptiles (Maize coleoptiles; .05 mM) | Injury or lack thereof of maize coleoptiles (Maize coleoptiles; .15 mM) | Injury or lack thereof of maize coleoptiles (Maize coleoptiles; .5 mM) | difference in toxicity between FB1 and AP1 to maize coleoptiles (Maize coleoptiles; AP1 less toxic than FB1) [fold] | AP1 less toxic (than FB1) in Lemna tissues (Lemna tissues) | reduction in toxicity to tomato by AP1 versus FB1 (tomato) [fold] | concentration giving significant inhibition of maize callus (maize callus) [µM] |
| --- | --- | --- | --- | --- | --- | --- | --- | --- | --- | --- | --- | --- | --- | --- |
| CCCC[C@@H](C)[C@@H](O)[C@@H](O)C[C@@H](C)C[C@H](O)CCCC[C@@H](O)C[C@H](O)[C@H](C)N [AP1] | 40 | ~100 | + | − | − | − | − | − | − | − | ≥ 30 | approximately 40 fold | ~100 |  |
| CCCC[C@@H](C)[C@@H](OC(=O)C[C@@H](CC(=O)O)C(=O)O)[C@H](C[C@@H](C)C[C@H](O)CCCC[C@@H](O)C[C@H](O)[C@H](C)N)OC(=O)C[C@@H](CC(=O)O)C(=O)O [FB1, fumonisin B1] | 0.4 |  | + | − | − | − |  | + | + | + |  |  |  | 1.4 |
